Measured values: patent publication US20120214784A1, “SPIROPIPERIDINE COMPOUNDS AS ORL-1 RECEPTOR ANTAGONISTS” (ELI LILLY AND COMPANY, priority 2009, published 2012)

Tests used:
[1] = system: wild type and ORL knockout mice; test: Blockade of fasting-induced hyperphagia in mice; assay type: in vivo, mouse; settings: wild type mice, oral gavage 30 min. prior to food, food intake 1 hr
From the text: Blockade of fasting-induced hyperphagia in rats is an accepted model for hyperphagic eating disorders. […] Mice are individually housed a minimum of 3 days prior to the onset of testing to eliminate any effects of stress due to the change from group to individual housing. Three mice/genotype are randomly assigned to each treatment group on the test day. Pre-fast body weight measurements are taken, and food is then removed from cages overnight. Mice are fasted for approximately 15 hr. The next morning, the mice are given one of three doses of drug or vehicle via oral gavage 30 min. prior to gaining access to food. Drugs are dissolved in 20% Captisol dissolved in 25 mM phosphate buffer, pH 2.0. Measurements of body weight are taken immediately prior to drug treatment or 24 hr. after access to food is restored. […] Measurements of food intake are recorded 1 hr following access to food, as indicated, by weight of food remaining at 1 hr. It should be noted that food intake measured is during the light phase, a time during which mice are typically at rest and not normally eating. Following initial testing, mice are rested for 1 week with access to unlimited chow.

[2] = target: human ERG (hERG) K+ channel (Homo sapiens, UniProt Q12809); test: hERG channel [3H]astemizole binding assay
Procedure: Blockade of K^+-channel conductance in the heart is associated with cardiotoxicity in the form of QT-wave prolongation. The affinity (Ki) of the exemplified nociceptin receptor antagonists for the human ERG (hERG) K^+ channel is determined in HEK293 cells expressing cloned hERG using the hERG channel antagonist radioligand [3H]astemizole (2 nM final assay concentration) according to well known procedures (see for example Finlayson K, et al. (Eur J Pharmacol. 412(3):203-12, 2001) [3H]Astemizole binding assays are performed at the contract research company Cerep (Paris France) according to standard procedures.

[3] = target: T1, cloned human ORL1/nociceptin receptors (Homo sapiens, UniProt P41146); test: Functional blockade of agonist-mediated G-protein activation, GTP-γ-[35S] binding; assay type: biochemical
T1 construct: expressed in transfected cells
T1 sequence (P41146 whole entry): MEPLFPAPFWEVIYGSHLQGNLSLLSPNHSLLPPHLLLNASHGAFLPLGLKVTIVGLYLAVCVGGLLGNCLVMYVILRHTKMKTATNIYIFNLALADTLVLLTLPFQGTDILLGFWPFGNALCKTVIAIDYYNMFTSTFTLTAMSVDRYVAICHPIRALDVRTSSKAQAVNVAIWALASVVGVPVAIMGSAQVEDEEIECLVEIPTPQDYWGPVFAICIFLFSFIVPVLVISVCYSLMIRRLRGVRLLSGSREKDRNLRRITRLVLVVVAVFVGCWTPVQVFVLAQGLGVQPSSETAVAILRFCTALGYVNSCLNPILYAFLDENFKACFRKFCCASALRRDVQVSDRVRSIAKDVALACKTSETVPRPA
From the text: Agonist-mediated stimulation of G-protein coupled receptors results in the activation of membrane associated Gαβγ-protein heterotrimer complexes, and represents the first step in the transduction of extracellular signals to modification of intracellular pathways. The first step in activation of receptor-mediated activation of Gαβγ-proteins heterotrimer is the exchange of Gα subunit bound guanosine diphoshpate (GDP) for guanosine triphosphate (GTP). The binding of GTP to the Gα subunit causes dissociation of the heterotrimer subunits, Gβ and Gγ, resulting in the modulation of several intracellular signaling cascades. Measurement of receptor-mediated G-protein activation can be measured using the non-hydrolyzable radiolabeled analog of GTP, GTP-γ-[35S]. Utilizing this methodology, antagonist affinity (Kb) is measured in membranes expressing cloned human ORL1/nociceptin receptors using a GTP-γ-[35S] binding assay according to previously described protocols with minor modifications (DeLapp et al., J Pharmacol Exp Ther. 1999 May; 289(2):946-55; Ozaki et al., Eur J Pharmacol. 2000 Aug. 18; 402(1-2):45-53). Assays are conducted in a 200-μl volume with the following buffer composition: 100 mM NaCl, 20 mM HEPES, 5 mM MgCl2, 1 mM EDTA, 0.1% BSA, 3 μM GDP, 0.5 nM [^35S]GTPγS. ORL1 receptor membrane suspension is added at a concentration of 20 μg protein per well and receptor stimulation is achieved using 300 nM nociceptin/OFQ. Wheat germ agglutinin coated SPA beads (Amersham, Arlington Hts., Ill.) are added at 1 mg per well to detect membrane-bound [^35S]GTPγS. Plates are sealed and incubated for 2 hr. at room temperature. Plates are then placed at 4° C. overnight to allow the SPA beads to settle and then counted in a Wallac Microbeta. Specific [^35S]GTPγS binding is determined as the difference in CPM observed in the absence and presence of 10 μM unlabeled GTPγS. Data are plotted as the percent of specific [^35S]GTPγS bound. Curves are plotted as the percent of specific binding and IC50 values are determined using a sigmoidal dose response curve with variable slope. Antagonist affinity (Kb) is estimated according to DeLapp et al., 1999 using a modification of the equation of Cheng and Prusoff (1973) where Kb=IC50×(1+D×EC50^−1)^−1.

[4] = target: T2, nociceptin/ORL1 receptors (Rattus norvegicus, UniProt P35370); test: In vivo receptor occupancy (LC/MS/MS, RO Tracer) in hypothalamus; settings: oral 3 mg/kg dose after 6 hr.
T2 construct: rats are sacrificed by cervical dislocation and the hypothalamus is removed; from tissue; host or cells: rat hypothalamus (in vivo occupancy)
T2 sequence (P35370 whole entry): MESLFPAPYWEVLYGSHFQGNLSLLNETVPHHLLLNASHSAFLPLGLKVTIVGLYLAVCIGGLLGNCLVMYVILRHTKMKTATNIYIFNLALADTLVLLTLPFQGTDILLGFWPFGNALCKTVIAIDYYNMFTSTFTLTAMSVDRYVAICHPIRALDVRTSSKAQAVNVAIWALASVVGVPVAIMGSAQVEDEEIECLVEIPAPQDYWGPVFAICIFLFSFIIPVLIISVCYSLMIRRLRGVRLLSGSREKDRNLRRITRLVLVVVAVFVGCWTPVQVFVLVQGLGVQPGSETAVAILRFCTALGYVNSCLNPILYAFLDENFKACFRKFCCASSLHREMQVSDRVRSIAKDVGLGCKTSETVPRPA

5-HT1B = 5-HT1B (Homo sapiens, UniProt P28222); test: Radioligand binding selectivity; settings: 5-HT1B; read-out: Ki
Chain of 5-HT1B (P28222 whole entry, species assumed): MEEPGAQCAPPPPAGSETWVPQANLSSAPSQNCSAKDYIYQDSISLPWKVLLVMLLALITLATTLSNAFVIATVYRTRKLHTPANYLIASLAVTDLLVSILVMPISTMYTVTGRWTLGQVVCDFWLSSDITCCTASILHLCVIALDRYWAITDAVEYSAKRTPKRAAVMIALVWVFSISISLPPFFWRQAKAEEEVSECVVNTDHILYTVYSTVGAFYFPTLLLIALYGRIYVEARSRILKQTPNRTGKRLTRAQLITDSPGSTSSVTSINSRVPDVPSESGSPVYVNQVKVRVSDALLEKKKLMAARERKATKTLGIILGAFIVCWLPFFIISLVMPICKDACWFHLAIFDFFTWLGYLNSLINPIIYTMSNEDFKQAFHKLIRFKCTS
Procedure: (§1) Radioligand binding assays are commonly used to determine the affinity (Ki) or potency of a compound to bind to a particular receptor or target protein. A filtration-based [3H]-OFQ/nociceptin receptor binding assay is developed based on previous assay formats (Ardati A, Henningsen R A, Higelin J, Reinscheid R K, Civelli O, Monsma F J Jr. Mol. Pharmacol. 1997 May; 51(5):816-24.) with minor modifications. [3H]-OFQ/nociceptin binding assays are carried out in deep-well 96-well plates. [^3H]OFQ (final assay concentration 0.2 nM) competition studies are carried out with 5-10 μg of membrane protein (isolated from Chinese hamster ovary cells (CHO cells) expressing cloned human ORL1 receptors) in a final assay volume of 0.5 mL of buffer containing 20 mM HEPES, pH 7.4, 5 mM MgCl2, 1 mM EGTA, 100 mM NaCl, 0.1% bovine serum albumin. Samples are incubated for 60 min. at room temperature, which is found to be optimal for competition assays. The assays are terminated by filtration through glass fiber filters (Wallac filtermat A) [pretreated with 0.3% polyethylenimine (Sigma) for 1 hr] on a Tometc cell harvester, and the filters are washed three times with 5 mL of ice-cold 50 mM Tris.HCl, pH 7.4. Filtermats are then dried and imbedded with Meltilex scintillant A and the radioactivity counted in a Wallac Microbeta scintillation counter. Specific binding is determined by displacement with 100 nM unlabeled nociceptin. Curves are plotted as the percent of specific binding and IC50 values are determined using a sigmoidal dose response curve with variable slope. K, values are calculated from the IC50 by the equation of Cheng and Prusoff (Cheng, Y. C., and Prusoff, W. H., Biochem. Pharmacol. 22, 3099-3108 (1973)) where Ki=IC50×(1+D×Kd^−1)^−1. Similarly, Ki for the mu, kappa and delta opioids, serotonin, adrenergic, and muscarinic receptors may be determined using membranes expressing the desired receptor and appropriate corresponding radioligand competitor molecules.

5-HT7 = 5-HT7 (Homo sapiens, UniProt P34969); test: Radioligand binding selectivity; settings: 5-HT7; read-out: Ki
Chain of 5-HT7 (P34969 whole entry, species assumed): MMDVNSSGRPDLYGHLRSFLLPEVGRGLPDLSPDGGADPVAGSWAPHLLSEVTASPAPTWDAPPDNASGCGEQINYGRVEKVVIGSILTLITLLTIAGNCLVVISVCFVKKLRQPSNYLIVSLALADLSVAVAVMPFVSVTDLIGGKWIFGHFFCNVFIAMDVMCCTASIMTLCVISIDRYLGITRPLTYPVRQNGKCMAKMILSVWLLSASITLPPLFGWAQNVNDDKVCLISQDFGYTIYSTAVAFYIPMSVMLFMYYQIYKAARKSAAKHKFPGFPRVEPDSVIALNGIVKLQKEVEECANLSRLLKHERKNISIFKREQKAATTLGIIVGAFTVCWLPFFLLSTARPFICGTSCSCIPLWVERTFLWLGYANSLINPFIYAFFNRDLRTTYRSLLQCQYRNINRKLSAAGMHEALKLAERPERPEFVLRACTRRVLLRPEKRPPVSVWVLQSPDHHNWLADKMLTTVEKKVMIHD
Procedure: as §1

5-HT1F = 5-HT1F (Homo sapiens, UniProt P30939); test: Radioligand binding selectivity
Chain of 5-HT1F (P30939 whole entry, species assumed): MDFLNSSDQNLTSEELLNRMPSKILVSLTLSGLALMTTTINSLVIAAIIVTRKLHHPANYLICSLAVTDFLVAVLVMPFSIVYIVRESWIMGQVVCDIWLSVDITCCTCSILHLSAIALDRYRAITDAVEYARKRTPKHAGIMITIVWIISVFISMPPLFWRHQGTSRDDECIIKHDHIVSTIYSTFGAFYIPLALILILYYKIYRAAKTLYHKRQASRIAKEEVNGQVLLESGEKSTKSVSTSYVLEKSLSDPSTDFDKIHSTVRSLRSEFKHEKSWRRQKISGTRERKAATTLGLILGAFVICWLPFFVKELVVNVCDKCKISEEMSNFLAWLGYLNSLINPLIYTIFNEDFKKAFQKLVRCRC
Procedure: as §1

5-HT2C = 5-HT2C (Homo sapiens, UniProt P28335); test: Radioligand binding selectivity; settings: 5-HT2C; read-out: Ki
Chain of 5-HT2C (P28335 33-458, species assumed): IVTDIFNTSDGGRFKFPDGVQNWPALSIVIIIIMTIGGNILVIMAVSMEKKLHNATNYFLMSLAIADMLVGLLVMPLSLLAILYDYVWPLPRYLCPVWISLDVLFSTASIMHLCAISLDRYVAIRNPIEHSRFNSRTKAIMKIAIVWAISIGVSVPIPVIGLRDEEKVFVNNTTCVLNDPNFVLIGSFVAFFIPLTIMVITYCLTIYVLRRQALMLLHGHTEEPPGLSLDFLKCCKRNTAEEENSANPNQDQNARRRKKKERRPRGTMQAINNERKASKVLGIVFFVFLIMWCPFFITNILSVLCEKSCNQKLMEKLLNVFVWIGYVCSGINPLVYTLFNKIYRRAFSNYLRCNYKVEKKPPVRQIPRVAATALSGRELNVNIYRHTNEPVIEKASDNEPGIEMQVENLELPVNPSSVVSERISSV
Procedure: as §1

5-HT5 = 5-HT5 (Homo sapiens, UniProt P47898); test: Radioligand binding selectivity; settings: 5-HT5; read-out: Ki
Chain of 5-HT5 (P47898 whole entry, species assumed): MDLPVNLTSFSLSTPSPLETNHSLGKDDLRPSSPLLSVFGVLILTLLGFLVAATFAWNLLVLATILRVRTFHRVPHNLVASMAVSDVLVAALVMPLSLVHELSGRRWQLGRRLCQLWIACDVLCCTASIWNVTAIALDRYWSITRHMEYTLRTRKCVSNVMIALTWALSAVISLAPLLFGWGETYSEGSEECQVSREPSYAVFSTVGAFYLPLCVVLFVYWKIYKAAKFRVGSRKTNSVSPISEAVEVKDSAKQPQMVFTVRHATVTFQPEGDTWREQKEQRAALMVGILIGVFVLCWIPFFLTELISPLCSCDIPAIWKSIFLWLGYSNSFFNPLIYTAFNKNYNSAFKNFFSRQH
Procedure: as §1

5-HT4 = 5-HT4 (Homo sapiens, UniProt Q13639); test: Radioligand binding selectivity; settings: 5-HT4; read-out: Ki
Chain of 5-HT4 (Q13639 whole entry, species assumed): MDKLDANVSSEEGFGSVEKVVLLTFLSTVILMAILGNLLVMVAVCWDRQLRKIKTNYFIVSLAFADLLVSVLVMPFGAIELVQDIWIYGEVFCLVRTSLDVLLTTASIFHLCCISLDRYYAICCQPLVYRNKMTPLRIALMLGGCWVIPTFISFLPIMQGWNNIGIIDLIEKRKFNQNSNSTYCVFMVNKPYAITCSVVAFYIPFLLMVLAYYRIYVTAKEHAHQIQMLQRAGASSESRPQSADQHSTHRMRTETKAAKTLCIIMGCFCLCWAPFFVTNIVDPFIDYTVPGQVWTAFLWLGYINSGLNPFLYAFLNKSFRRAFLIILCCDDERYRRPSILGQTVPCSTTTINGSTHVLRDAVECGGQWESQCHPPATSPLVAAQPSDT
Procedure: as §1

5-HT2B = 5-HT2B (Homo sapiens, UniProt P41595); test: Radioligand binding selectivity
Chain of 5-HT2B (P41595 whole entry, species assumed): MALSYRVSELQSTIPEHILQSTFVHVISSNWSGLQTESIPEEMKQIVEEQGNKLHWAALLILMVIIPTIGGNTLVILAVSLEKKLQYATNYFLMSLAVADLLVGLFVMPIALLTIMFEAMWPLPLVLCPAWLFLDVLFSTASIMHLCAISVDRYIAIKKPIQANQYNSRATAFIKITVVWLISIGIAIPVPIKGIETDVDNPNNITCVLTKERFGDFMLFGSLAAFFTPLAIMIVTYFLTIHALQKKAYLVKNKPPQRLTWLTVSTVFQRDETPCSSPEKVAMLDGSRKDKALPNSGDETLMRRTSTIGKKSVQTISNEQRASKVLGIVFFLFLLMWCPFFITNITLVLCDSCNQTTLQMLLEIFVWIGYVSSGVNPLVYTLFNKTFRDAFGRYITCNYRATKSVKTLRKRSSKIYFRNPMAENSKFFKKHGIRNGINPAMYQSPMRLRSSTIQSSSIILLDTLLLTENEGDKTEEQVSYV
Procedure: as §1

5-HT6 = 5-HT6 (Homo sapiens, UniProt P50406); test: Radioligand binding selectivity; settings: 5-HT6; read-out: Ki
Procedure: as §1

5-HT1D = 5-HT1D (Homo sapiens, UniProt P28221); test: Radioligand binding selectivity; settings: 5-HT1D; read-out: Ki
Chain of 5-HT1D (P28221 whole entry, species assumed): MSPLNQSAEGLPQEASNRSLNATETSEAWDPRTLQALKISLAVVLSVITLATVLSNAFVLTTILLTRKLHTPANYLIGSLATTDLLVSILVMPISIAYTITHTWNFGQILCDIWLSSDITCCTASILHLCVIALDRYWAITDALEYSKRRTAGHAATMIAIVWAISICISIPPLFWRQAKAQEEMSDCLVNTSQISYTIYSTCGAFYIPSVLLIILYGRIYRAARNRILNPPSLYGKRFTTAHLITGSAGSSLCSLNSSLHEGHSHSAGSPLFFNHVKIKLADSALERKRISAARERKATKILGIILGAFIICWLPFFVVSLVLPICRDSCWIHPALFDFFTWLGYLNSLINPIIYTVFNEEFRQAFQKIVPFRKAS
Procedure: as §1

5-HT2A = 5-HT2A (Homo sapiens, UniProt P28223); test: Radioligand binding selectivity; settings: 5-HT2A; read-out: Ki
Chain of 5-HT2A (P28223 whole entry, species assumed): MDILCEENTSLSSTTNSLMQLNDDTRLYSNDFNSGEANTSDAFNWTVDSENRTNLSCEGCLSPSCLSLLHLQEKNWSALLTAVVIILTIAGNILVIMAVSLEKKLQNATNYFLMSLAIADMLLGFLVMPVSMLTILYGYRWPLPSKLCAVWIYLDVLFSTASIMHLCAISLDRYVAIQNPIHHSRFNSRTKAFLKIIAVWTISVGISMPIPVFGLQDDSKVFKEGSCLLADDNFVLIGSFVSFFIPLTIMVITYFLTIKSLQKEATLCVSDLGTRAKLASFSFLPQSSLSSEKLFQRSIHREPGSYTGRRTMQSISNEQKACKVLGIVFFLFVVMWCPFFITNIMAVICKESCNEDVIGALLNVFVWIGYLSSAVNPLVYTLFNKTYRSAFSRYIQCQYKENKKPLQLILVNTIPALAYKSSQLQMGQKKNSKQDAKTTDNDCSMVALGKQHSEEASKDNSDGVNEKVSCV
Procedure: as §1

5-HT1E = 5-HT1E (Homo sapiens, UniProt P28566); test: Radioligand binding selectivity; settings: 5-HT1E; read-out: Ki
Chain of 5-HT1E (P28566 whole entry, species assumed): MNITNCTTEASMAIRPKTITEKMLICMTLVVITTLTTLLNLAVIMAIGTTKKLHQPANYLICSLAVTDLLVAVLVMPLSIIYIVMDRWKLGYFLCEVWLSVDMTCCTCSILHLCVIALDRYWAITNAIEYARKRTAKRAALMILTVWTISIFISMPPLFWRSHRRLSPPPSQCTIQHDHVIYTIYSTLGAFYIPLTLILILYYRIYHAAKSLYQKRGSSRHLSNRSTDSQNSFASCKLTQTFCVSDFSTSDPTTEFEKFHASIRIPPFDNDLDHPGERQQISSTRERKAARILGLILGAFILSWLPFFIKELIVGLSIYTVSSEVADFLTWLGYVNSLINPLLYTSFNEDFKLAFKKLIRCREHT
Procedure: as §1

[5] = target: T3, cloned human ORL1 receptors (Homo sapiens, UniProt P41146); test: [3H]-OFQ/nociceptin receptor binding assay
T3 construct: expressed in transfected cells; host or cells: CHO cells (membranes)
T3 sequence (P41146 whole entry): as the sequence (P41146 whole entry) above
Procedure: as §1

**Q.** With `OCc1nn(-c2c(F)cccc2F)cc1CN1CCC2(CC1)OCC(F)(F)c1cc(Cl)sc12` [Example 50, [4-[(2-Chloro-4,4-difluoro-spiro[5H-thieno[2,3-c]pyran-7,4′-piperidine]-1′-yl)methyl]-1-(2,6-difluorophenyl)pyrazol-3-yl]methanol] as the compound, how does the fasting-induced hyperphagia [1] read?
**A.** substantially block fasting-induced hyperphagia

**Q.** And the Ki [2]?
**A.** 7 µM

**Q.** And the Kb [3]?
**A.** 0.00054 µM

**Q.** And the receptor occupancy at 3 mg/kg [4]?
**A.** 81%

**Q.** What about the Ki (5-HT1B) of the same compound?
**A.** > 3.58 µM

**Q.** And the Ki (5-HT7)?
**A.** > 3.98 µM

**Q.** And the Ki (5-HT1F)?
**A.** > 8.52 µM

**Q.** What about the Ki (5-HT2C) of the same compound?
**A.** 4.75 µM

**Q.** What about the Ki (5-HT5) of the same compound?
**A.** > 9.09 µM

**Q.** What about the Ki (5-HT4) of the same compound?
**A.** > 4.12 µM

**Q.** What about the Ki (5-HT2B) of the same compound?
**A.** 0.0429 µM

**Q.** What about the Ki (5-HT6) of the same compound?
**A.** > 5.83 µM

**Q.** And the Ki (5-HT1D)?
**A.** > 8.55 µM

**Q.** What about the Ki (5-HT2A) of the same compound?
**A.** > 5 µM

**Q.** And the Ki (5-HT1E)?
**A.** > 5.37 µM

**Q.** And the Ki [5]?
**A.** 0.00089 µM
